Article PMC10108266, “Pharmacokinetic characteristics of golidocitinib, a highly selective JAK1 inhibitor, in healthy adult participants” (Frontiers in Immunology, 2023)
Like-named read-outs stand apart in the source and are kept apart here.

How the values were obtained:
[1] = tested on: CYP3A4/5 and flavin-containing monooxygenase enzyme (FMO); test: Enzymatic systems implicated in metabolism; format: in vitro ADME
[2] = In vitro binding to human plasma; format: in vitro ADME
[3] = JACKPOT2 multiple-ascending-dose plasma PK (once daily, 14 days); format: in vivo, human; conditions: for Cmax / AUC(0-t) / Tmax: human, plasma, oral; for Cmax / AUC(0-t): geometric mean (CV%); for AUC(0-t): read-out: AUC0-24h; for Tmax: median (min, max)
Method: (§1) A total of 42 and 24 healthy participants were enrolled in part A and part B, respectively. In part A, a total of 30 participants were randomized into 5 SAD cohorts (n = 6 per cohort) and received a single dose of golidocitinib at different dose levels or a matching placebo in a 4:2 ratio. In the food effect cohort, a total of 12 participants were enrolled and received the study drug under fasted or fed conditions, with a sequential design. The 50 mg dose was selected based on available safety data after the completion of the SAD cohorts, and also on the outcomes from PK/PD modeling for potential efficacious dose for autoimmune disease. On Day 1, participants took a single dose of golidocitinib under fast condition. After a 14-day wash-out period, on Day 15, participants received another single dose of golidocitinib immediately after a standard high-fat meal. Food recipes and contents are consistent with that described in FDA Guidance for Food-Effect Bioavailability studies ([10]). For the fed condition, keeping fasted for at least 10 hours, participants started ingestion of high-fat meal 30 minutes prior to administration of golidocitinib. They had to finish the meal within 30 minutes or less, and no food was allowed for at least 4 hours post-dose. In part B, a total of 24 participants were randomized into 3 MAD cohorts, with 8 in each cohort (active:placebo = 6:2). In these cohorts, participants received golidocitinib at different dose levels or placebo once daily dosing for 14 days. Dose escalation was based on available PK and safety data in the previous cohorts.
In the SAD cohorts, serial blood samples were obtained on Day 1 at pre-dose, and at 0.5, 1, 1.5, 2, 3, 4, 6, 10, 14, 24 (Day 2), 48 (Day 3), 72 (Day 4), 120 (Day 6), 168 (Day 8) and 216 (Day 10) hours post-dose for plasma PK analysis. A similar sampling schedule was undertaken for the MAD cohorts on Day 1 and Day 14, with additional trough samples obtained on Days 5, Day 8, and Day 11. In the MAD cohorts, urine samples were collected on Day 14 during the collection intervals of 0-4, 4-10, and 10-24 hours following the last dose for urine PK analysis. Plasma and urine samples were analyzed by Frontage Laboratories Inc. (New Jersey, USA) using a validated LC/MS/MS bioanalytical method to determine golidocitinib concentrations. Cross validation in plasma was successful between Frontage Laboratories Inc. (New Jersey, USA) and Frontage Laboratories Inc. (Shanghai) using clinical samples and spiked quality control samples.
Non-compartmental PK analysis for golidocitinib concentrations was performed using Phoenix WinNonlin (Certara USA Inc., version 8.1).
Dose proportionality was concluded if the 90% confidence interval for the ratio of dose-normalized, geometric mean values (Rdnm) was contained completely within the range of 0.8 - 1.25 ([11], [12]).

[4] = One-month toxicology study in rat; conditions: in vivo
[5] = JACKPOT2 food effect cohort (50 mg, fasted vs high-fat meal); format: in vivo, human; conditions: for AUC0-inf, Geometric Mean Ratio (90% CI) (Test vs Reference) / AUC0-t, Geometric Mean Ratio (90% CI) (Test vs Reference) / Cmax, Geometric Mean Ratio (90% CI) (Test vs Reference) / AUC(0-inf) / AUC(0-t) / Cmax: 50 mg; for AUC0-inf, Geometric Mean Ratio (90% CI) (Test vs Reference) / AUC0-t, Geometric Mean Ratio (90% CI) (Test vs Reference) / Cmax, Geometric Mean Ratio (90% CI) (Test vs Reference): fed versus fasted, percent ratio of geometric least square means; for AUC(0-inf): read-out: AUC0-inf, Geometric mean (%CV); for AUC(0-t): read-out: AUC0-t, Geometric mean (%CV); for Cmax: read-out: Cmax, Geometric mean (%CV)
Method: as §1
For food effect assessment, log-transformed PK parameters (AUC0-t, AUC0-inf, and Cmax) of golidocitinib were analyzed using a mixed-effect model including terms for study treatment (fasted and fed) as fixed effects, and participants nested within treatment as a random effect. The CIs on the ratios of untransformed PK parameters were derived through a reverse transformation of the 90% CIs for the differences of the means in the log scale from the mixed-effect model. Least-squares geometric means, a ratio of the geometric means and 90% CIs on the ratio of fed to fasted were presented.

[6] = Overall safety and tolerability, JACKPOT2 and JACKPOT3; format: in vivo, human
Source text: Safety assessments included monitoring of adverse events/serious adverse events, clinical safety laboratory tests (clinical chemistry, hematology, coagulation, and urinalysis tests), 12-lead ECG, vital signs (blood pressure, pulse rate, and respiratory rate), and pulmonary function. All adverse events were coded using the Medical Dictionary for Regulatory Activities (MedDRA), version 22.0. The CTCAE 5.0 was used to define the intensity of AEs.
The safety monitoring for both JACKPOT2 and JACKPOT3 was similar, included monitoring of adverse events/serious adverse events, clinical safety laboratory tests (clinical chemistry, hematology, coagulation, and urinalysis tests), 12-lead ECG, vital signs (blood pressure, pulse rate, and respiratory rate), and pulmonary function.

[7] = 25 mg, 25 mg once daily, Day 14
[8] = 50 mg, 50 mg once daily, Day 14
[9] = 100 mg, 100 mg once daily, Day 1
[10] = 100 mg, 100 mg once daily, Day 14
[11] = human, plasma, oral, 50 mg single dose, Fasted (Reference), N = 12
[12] = human, plasma, oral, 50 mg single dose, High-fat meal (Test), N = 11

COc1nn(C)cc1Nc1nccc(-c2c[nH]c3c(NC(=O)[C@@H](C)N4CCN(C)CC4)cccc23)n1 [golidocitinib, (2R)-N-[3-[2-[(3-Methoxy-1-methyl-pyrazol-4-yl)amino]pyrimidin-4-yl]-1H-indol-7-yl]-2-(4-methylpiperazin-1-yl)propenamide]
enzymatic systems implicated in the metabolism [1]: CYP3A4/5 and flavin-containing monooxygenase enzyme (FMO) | bound to human plasma ([2]; human plasma of Caucasian and Chinese, in vitro): ~ 63% | fraction unbound ([2]; human, plasma, read-out: free fraction in plasma): 0.373 | Cmax ([3]; 25 mg, 25 mg once daily, Day 1): 33.8 ng/mL | AUC(0-t) ([3]; 25 mg, 25 mg once daily, Day 1): 536 ng·h/mL | Tmax ([3]; 25 mg, 25 mg once daily, Day 1): 6 h | Cmax [3, 7]: 83.9 ng/mL | AUC(0-t) [3, 7]: 1530 ng·h/mL | Tmax [3, 7]: 6 h | Cmax ([3]; 50 mg, 50 mg once daily, Day 1): 62.1 ng/mL | AUC(0-t) ([3]; 50 mg, 50 mg once daily, Day 1): 1020 ng·h/mL | Tmax ([3]; 50 mg, 50 mg once daily, Day 1): 6 h | Cmax [3, 8]: 169 ng/mL | AUC(0-t) [3, 8]: 3190 ng·h/mL | Tmax [3, 8]: 6 h | Cmax [3, 9]: 149 ng/mL | AUC(0-t) [3, 9]: 2490 ng·h/mL | Tmax [3, 9]: 4 h | Cmax [3, 10]: 375 ng/mL | AUC(0-t) [3, 10]: 7190 ng·h/mL | Tmax [3, 10]: 6 h | increase of Cmax and AUC0-24hr on day 14 compared to day 1 (accumulation) ([3]; multiple once-daily dosing): 2-3 folds | time to steady-state plasma concentrations ([3]; once-daily dosing): ≤ 14 days | Human equivalent dose of the NOAEL at 1 month ([4]; body surface area (BSA) conversion, read-out: Human Equivalent Dose (HED) of the NOAEL): 0.972 mg/kg | NOAEL at 1 month ([4]; most sensitive species (rat), one-month toxicology study, read-out: No Observed Adverse Effect Level (NOAEL)): 6 mg/kg | tmax, Median (range) ([5]; 50 mg single dose, High-fat meal (Test), N = 11): 6.00 (4.00, 14.0) hour | AUC0-inf, Geometric Mean Ratio (90% CI) (Test vs Reference) [5]: 116.5 (111.2, 122.0) % | AUC0-t, Geometric Mean Ratio (90% CI) (Test vs Reference) [5]: 115.0 (109.3, 121.0) % | Cmax, Geometric Mean Ratio (90% CI) (Test vs Reference) [5]: 108.9 (97.81, 121.2) % | AUC0-inf, Geometric Mean Ratio (90% CI) (Test vs Reference) ([5]; listed as Golidocitinib): 116.5 (111.2-122.0) % | AUC0-t, Geometric Mean Ratio (90% CI) (Test vs Reference) ([5]; listed as Golidocitinib): 115.0 (109.3-121.0) % | Cmax, Geometric Mean Ratio (90% CI) (Test vs Reference) ([5]; listed as Golidocitinib): 108.9 (97.81-121.2) % | AUC(0-inf) [5, 11]: 2960 ng·h/mL | AUC(0-t) [5, 11]: 2770 ng·h/mL | Cmax [5, 11]: 68.8 ng/mL | AUC(0-inf) [5, 12]: 3400 ng·h/mL | AUC(0-t) [5, 12]: 3230 ng·h/mL | Cmax [5, 12]: 73.7 ng/mL | Tmax ([5]; human, plasma, oral, 50 mg single dose, Fasted (Reference), N = 12, read-out: tmax, Median (range)): 6 h | tolerability ([6]; healthy participants, 5 mg to 150 mg single dose, 25 mg to 100 mg multiple dose): well-tolerated | serious adverse events ([6]; in vivo): No serious adverse events were reported | CTCAE grade 3 or higher drug-related TEAE ([6]; investigators' assessment): no CTCAE grade 3 or higher drug-related TEAE was reported
